Experimental data published in patent US8895548B2, “Pharmaceutical composition for treating alzheimer's disease” (Shionogi & Co., Ltd., priority 2007, dated 2014).

System: not given
Assay: not given
Conditions: not given

| melting point | SMILES |
| --- | --- |
| 219 to 222 °C | CC1(C2=CC=C(F)CC2)CCCSC(N)=N1.Cl (centres unmarked) |
| 161 to 165 °C | C[C@]1(c2ccccc2)C[C@@H](c2ccccc2)SC(N)=N1.Cl |
| 223 to 225 °C | CC1(C2=CC=CCC2)CCCSC(N)=N1.Cl (centres unmarked) |
| 139 to 140 °C | C[C@]1(c2ccccc2)C[C@H](c2ccccc2)SC(N)=N1 (racemic) [Compound 835] |
| 214 to 217 °C | COc1ccc([C@]2(C)N=C(N)SC[C@H]2C)cc1 [Compound 8] |
| 141 to 142 °C | COc1ccc([C@@]2(C)C[C@H](C)SC(N)=N2)cc1 [Compound 86] |
| 91 to 96 °C | CC1(c2cccc(NC(=O)C3CN=CC=N3)c2)CCSC(N)=N1 (centres unmarked) [Compound 164] |
| 187 to 190 °C | C[C@@]1(c2cc(NC(=O)c3n[nH]c4ccccc34)ccc2F)CCSC(N)=N1 [Compound 241] |
| 155 to 158 °C | CC1(c2cccc(CO)c2)CCSC(N)=N1 (centres unmarked) [Compound 501] |
| 204 to 208 °C | CC1(c2cccc(NC(=O)c3ncc(Cl)cn3)c2)CCSC(N)=N1 (centres unmarked) [Compound 515] |
| 152 to 153 °C | CC1(C2C=C(/C=N/OCc3cccnc3)C=CC2)CCSC(N)=N1 (centres unmarked) [Compound 584] |
| 164 to 187 °C | COC(=O)c1cc(C(=O)Nc2cccc(C3(C)CCSC(N)=N3)c2)nn1C (centres unmarked) [Compound 687] |
| 148 to 150 °C | C[C@@]1(C2C=C(NC(=O)c3ncc(Cl)cc3N)C=CC2)CCSC(N)=N1 (some centres unmarked) [Compound 743] |
| 205 to 206 °C | CC1(c2ccccc2)CCN=C(N)S1.Cl (centres unmarked) [Compound 783] |
| 185 to 187 °C | CC1(c2cc(NC(=O)c3ccc(Cl)cn3)cc(C(F)(F)F)c2)C=C(N)SCC1 (centres unmarked) [Compound 964] |
| 169 to 170 °C | CC1(c2ccc(OC3C=CC=CC3)cc2)CCSC(N)=N1 (centres unmarked) [Compound 1055] |
| 162 to 165 °C | Cc1ccc(OC2=CCC(C3(C)CCSC(N)=N3)C=C2)cc1 (centres unmarked) [Compound 1067] |
| 132 to 134 °C | CC1(c2ccc(F)c(C(=O)NC3=CC(Cl)CC=N3)c2)CCSC(N)=N1 (centres unmarked) [Compound 1068] |
| 167 to 170 °C | CCS/C(N)=N\C(C)C1C=C(NC(=O)c2cnc3ccccc3n2)C=CC1 (centres unmarked) [Compound 1115] |
| 290 to 295 °C | CC1(c2ccc(F)c(N3N=C4c5cc(Cl)ccc5NCC4C3=O)c2)CCSC(N)=N1 (centres unmarked) [Compound 1166] |

System: brain β amyloid 1-40
Assay: Lowering effect on brain β amyloid in mice
Format: in vivo
Conditions: sc; male Crlj:CD-1(ICR) mouse, 3 hours after 30 mg/kg of subcutaneous administration; read-out: brain β amyloid 1-40, % of vehicle control group

| SMILES | response vs control in vivo at 30 mg/kg |
| --- | --- |
| CC1(c2cccc(NC(=O)c3ccc(C#N)cn3)c2)CCSC(N)=N1 (centres unmarked) [Compound 651] | 52.3% |

System: brain β amyloid 1-40
Assay: Lowering effect on brain β amyloid in rats
Format: in vivo
Conditions: male Crg:SD rat, 10 mg/kg orally, brain isolated 3 hours after administration
Method: (§1) A test compound was suspended in 0.5% methylcellulose, the final concentration was adjusted to 2 mg/mL, and this was orally administered to male Crg:SD rat (7 to 9 week old) at 10 mg/kg. In a vehicle control group, only 0.5% methylcellulose was administered, and an administration test was performed at 3 to 8 animals per group. A brain was isolated 3 hours after administration, a cerebral hemisphere was isolated, a weight thereof was measured, the hemisphere was rapidly frozen in liquid nitrogen, and stored at −80° C. until the day for extraction. The frozen cerebral hemisphere was transferred to a homogenizer manufactured by Teflon (registered trade mark) under ice cooling, a 5-fold volume of a weight of an extraction buffer (containing 1% CHAPS ({3-[(3-chloroamidopropyl)dimethylammonio]-1-propanesulfonate}), 20 mM Tris-HCl (pH 8.0), 150 mM NaCl, Complete (Roche) protease inhibitor) was added, up and down movement was repeated, and this was homogenized to solubilize for 2 minutes. The suspension was transferred to a centrifugation tube, allowed to stand on an ice for 3 hours or more and, thereafter centrifuged at 100,000×g and 4° C. for 20 minutes. After centrifugation, the supernatant was transferred to an ELISA plate (product No. 27730, Immuno-Biological Laboratories) for measuring 3 amyloid 1-40. ELISA measurement was performed according to the attached instruction. The lowering effect was calculated as a ratio compared to the brain b amyloid 1-40 level of vehicle control group.

| SMILES | brain β amyloid 1-40, % of vehicle control group |
| --- | --- |
| Cc1cnc(C(=O)Nc2ccc(F)c([C@]3(C)CCSC(N)=N3)c2)cn1 [Compound 622] | 50.1 % of vehicle control group |
| COc1cnc(C(=O)Nc2ccc(F)c([C@]3(C)CCSC(N)=N3)c2)cn1 [Compound 634] | 21.1 % of vehicle control group |

Same assay, conditions: po; male Crg:SD rat, 10 mg/kg orally, brain isolated 3 hours after administration, ELISA; read-out: reduction of brain β amyloid 1-40 compared to vehicle control group

| SMILES | inhibition in vivo at 10 mg/kg |
| --- | --- |
| C[C@@]1(c2cccc(NC(=O)c3ncc(Cl)cc3Cl)c2)CCSC(N)=N1 [Compound 39] | 60 to 90% |
| CC1(c2cc(NC(=O)c3ncc(Cl)cn3)ccc2F)CCSC(N)=N1 (centres unmarked) [Compound 204] | 60 to 90% |
| CC1(c2cccc(NC(=O)c3ccc(F)cn3)c2)CCSC(N)=N1 (centres unmarked) [Compound 212] | 60 to 90% |
| COc1cnc(C(=O)Nc2cccc(C3(C)CCSC(N)=N3)c2)cn1 (centres unmarked) [Compound 243] | 60 to 90% |
| Cc1cnc(C(=O)Nc2ccc(F)c(C3(C)CCSC(N)=N3)c2)cn1 (centres unmarked) [Compound 359] | 60 to 90% |
| CC1(c2cccc(NC(=O)c3ncc(C(F)(F)F)cc3Cl)c2)CCSC(N)=N1 (centres unmarked) [Compound 482] | 60 to 90% |
| C[C@@]1(c2cccc(NC(=O)c3cnc(O)cn3)c2)CCSC(N)=N1 [Compound 733] | 60 to 90% |
| CC1(c2cccc(NC(=O)c3ccc(Cl)cn3)c2)CCSC(N)=N1 (centres unmarked) [Compound 793] | 60 to 90% |
| Cc1cc(C(=O)Nc2ccc(F)c(C3(C)CCSC(N)=N3)c2)c(C)o1 (centres unmarked) [Compound 1282] | 60 to 90% |

System: brain β amyloid 1-40
Assay: Lowering effect on brain β amyloid in mice
Format: in vivo
Conditions: sc; male Crlj:CD-1(ICR) mouse, 100 mg/kg subcutaneously, brain isolated 3 hours after administration, ELISA; read-out: reduction of brain β amyloid 1-40 compared to vehicle control group
Method: as §1
A test compound was suspended in 0.5% methylcellulose, the final concentration was adjusted to 10 mg/mL, and this was subcutaneously administered to back of male Crlj:CD-1(ICR) mouse (7 to 8 week old) at 100 mg/kg. In a vehicle control group, only 0.5% methylcellulose was administered. A test was performed at 4 to 8 animals per group. A brain was isolated 3 hours after administration. The subsequent operations were the same as in the above test in rat.

| SMILES | inhibition in vivo at 100 mg/kg |
| --- | --- |
| CC1(c2cc(Br)cc(NC(=O)c3ccc(Cl)cn3)c2)CCSC(N)=N1 (centres unmarked) [Compound 165] | 60 to 90% |
| CC1(c2cccc(C(=O)Nc3ccc(Cl)cn3)c2)CCSC(N)=N1 (centres unmarked) [Compound 220] | 60 to 90% |
| Cc1cnc(C(=O)Nc2cccc(C3(C)CCSC(N)=N3)c2)cn1 (centres unmarked) [Compound 309] | 60 to 90% |
| CC1(c2cc(Cl)cc(NC(=O)c3ccc(Cl)cn3)c2)CCSC(N)=N1 (centres unmarked) [Compound 739] | 60 to 90% |
| CC1(c2cccc(NC(=O)c3ncc(Br)cn3)c2)CCSC(N)=N1 (centres unmarked) [Compound 900] | 60 to 90% |
| CC1(c2cc(NC(=O)c3ccc(Cl)cn3)cc(C(F)(F)F)c2)C=C(N)SCC1 (centres unmarked) [Compound 964] | 60 to 90% |
| CC1(c2cc(Br)cc(NC(=O)c3cc4ccccc4s3)c2)CCSC(N)=N1 (centres unmarked) [Compound 1014] | 60 to 90% |
| CC1(c2cc(Br)cc(NC(=O)c3ccc(Br)cc3)c2)CCSC(N)=N1 (centres unmarked) [Compound 1262] | 60 to 90% |
| CC1(c2cccc(NC(=O)c3cnc(N=[N+]=N)cn3)c2)CCSC(N)=N1 (centres unmarked) [Compound 1266] | 60 to 90% |

Same assay, conditions: sc; male Crlj:CD-1(ICR) mouse, 100 mg/kg subcutaneously, brain isolated 3 hours after administration; read-out: brain β amyloid 1-40, % of vehicle control group

| SMILES | response vs control in vivo at 100 mg/kg |
| --- | --- |
| CC1(c2cccc(NC(=O)c3ncc(Cl)cc3Cl)c2)CCSC(N)=N1 (centres unmarked) [Compound 127] | 25.2% |
| CC1(c2cc(NC(=O)c3ccc(C(F)(F)F)cn3)ccc2F)CCSC(N)=N1 (centres unmarked) [Compound 396] | 38.4% |
| CC1(c2cc(NC(=O)c3ccc(F)cn3)ccc2F)CCSC(N)=N1 (centres unmarked) [Compound 605] | 36.5% |
| CC1(c2cc(NC(=O)c3ccc(Cl)cn3)ccc2F)CCSC(N)=N1 (centres unmarked) [Compound 1043] | 15% |
| CC1(c2cc(NC(=O)c3ccc(Cl)cn3)ccc2Cl)CCSC(N)=N1 (centres unmarked) [Compound 1199] | 14.1% |
| CC1(c2cccc(NC(=O)c3ccc(C(F)(F)F)cn3)c2)CCSC(N)=N1 (centres unmarked) [Compound 1244] | 50.1% |
